The record followed here is patent publication EP0212404A1, “7-oxo-4-thia-1-azabicyclo [3.2.0] hept-2-ene derivatives” (HOECHST AKTIENGESELLSCHAFT, priority 1985, dated 1987).

Structures are written as SMILES. In brackets after ≈: the same amount, converted by molar mass.

Holding throughout (test): agar dilution test (MIC)
Assay type in all cases: cell-based
A general note: In agar dilution, organisms are placed on agar that contains the substance at set levels.

One assay concerns Bac.subt. ATCC6633. The settings on record: Mueller Hinton agar, 16 to 18 hours at 37°C, read-out: Minimum Inhibitory Concentration (MIC). How it is done:
(§1) The antimicrobial activity was determined by measuring the Minimum Inhibitory Concentration (MIC). The MIC of the compounds was determined by a standard test, the "agar dilution test" according to Lorian (Antibiotics in Laboratory Medicine, Williams and Wilkins, Baltimore/London 1980) as follows:
(§2) A two-fold decreasing concentration series of each compound was prepared in Petri dishes containing 15 ml of Mueller Hinton agar (Difco). One Petri dish containing only the Mueller Hinton agar served as control for bacterial growth. Each Petri dish was inoculated with a multi-point inoculator (Denley), which transferred 0.6µl of a 1:100 diluted 18 hours culture of the appropriate test bacterium. After 16 to 18 hours of incubation at 37°C the Petri dishes were examined for growth of bacteria. The lowest concentration of the compound which causes complete inhibition of growth is taken as the MIC except that the growth of a single colony or a haze is not taken as evidence of qrowth.

Another assay relates to E.coli 055. The settings on record: Escherichia coli, Mueller Hinton agar, 16 to 18 hours at 37°C, read-out: Minimum Inhibitory Concentration (MIC). The method, then:
as §1, §2

For another assay, the system named is E.coli 1507E. To be noted: Escherichia coli, 1507E, read-out: Minimum Inhibitory Concentration (MIC). The method, then: as §1, §2
Another assay has as its system E.coli DC0. To be noted: Escherichia coli, Mueller Hinton agar, 16 to 18 hours at 37°C, read-out: Minimum Inhibitory Concentration (MIC). How it is done: as §1, §2
The next assay concerns E.coli DC2. To be noted: Escherichia coli, Mueller Hinton agar, 16 to 18 hours at 37°C, read-out: Minimum Inhibitory Concentration (MIC). The method, then:
as §1, §2

The next assay has as its system E.coli KN126. The settings on record: Escherichia coli, Mueller Hinton agar, 16 to 18 hours at 37°C, read-out: Minimum Inhibitory Concentration (MIC). The method, then:
as §1, §2

For the next assay, the system named is E.coli TEM. The settings on record: Escherichia coli, read-out: Minimum Inhibitory Concentration (MIC). How it is done: as §1, §2
The next assay relates to Ent.cloacae 1321E. To be noted: Enterobacter cloacae, 1321E, read-out: Minimum Inhibitory Concentration (MIC). The method, then: as §1, §2
In a further assay the test system is Ent.cloacae P99. To be noted: Enterobacter cloacae, Mueller Hinton agar, 16 to 18 hours at 37°C, read-out: Minimum Inhibitory Concentration (MIC). How it is done:
as §1, §2

The subject of another assay is Kl.aerog. 1082E. To be noted: Mueller Hinton agar, 16 to 18 hours at 37°C, read-out: Minimum Inhibitory Concentration (MIC). How it is done: as §1, §2
For another assay, the system named is Kl.aerog. 1522E. The settings on record: read-out: Minimum Inhibitory Concentration (MIC). The method, then: as §1, §2
Another assay concerns Salm.typh. MZII. The settings on record: Mueller Hinton agar, 16 to 18 hours at 37°C, read-out: Minimum Inhibitory Concentration (MIC). How it is done:
as §1, §2

Another assay relates to Staph.aureus 285. To be noted: Staphylococcus aureus, Mueller Hinton agar, 16 to 18 hours at 37°C, read-out: Minimum Inhibitory Concentration (MIC). How it is done:
as §1, §2

The next assay deals with Staph.aureus 503. To be noted: Staphylococcus aureus, Mueller Hinton agar, 16 to 18 hours at 37°C, read-out: Minimum Inhibitory Concentration (MIC). The method, then: as §1, §2
For the next assay, the system named is Staph.aureus SG511. The settings on record: Staphylococcus aureus, Mueller Hinton agar, 16 to 18 hours at 37°C, read-out: Minimum Inhibitory Concentration (MIC). The method, then:
as §1, §2

The test system of a further assay is Str.faecium D. The settings on record: Enterococcus faecium; Str.faecium D; Mueller Hinton agar, 16 to 18 hours at 37°C; read-out: Minimum Inhibitory Concentration (MIC). How it is done:
as §1, §2

Another assay concerns Str.pyogenes 308A. To be noted: Streptococcus pyogenes, Mueller Hinton agar, 16 to 18 hours at 37°C, read-out: Minimum Inhibitory Concentration (MIC). How it is done:
as §1, §2

In another assay the test system is Str.pyogenes 77A. The settings on record: Streptococcus pyogenes, Mueller Hinton agar, 16 to 18 hours at 37°C, read-out: Minimum Inhibitory Concentration (MIC). The method, then: as §1, §2

On to `COc1ccc(C2=C(C(=O)O)N3C(=O)[C@H]([C@@H](C)O)[C@H]3S2)cc1` [Example 4-OCH3], for which the MIC was determined as 0.1 µg/mL (≈ 0.311 µM) in the assay on Bac.subt. ATCC6633; 3.13 µg/mL (≈ 9.74 µM) in the assay on E.coli 055; 12.5 µg/mL (≈ 38.9 µM) with E.coli 1507E; 25 µg/mL (≈ 77.8 µM) in the assay on E.coli DC0; 0.78 µg/mL (≈ 2.43 µM) in the assay on E.coli DC2; 12.5 µg/mL (≈ 38.9 µM) in the assay on E.coli KN126. For the same molecule, the MIC with E.coli TEM stood at 12.5 µg/mL (≈ 38.9 µM); with Ent.cloacae 1321E, 12.5 µg/mL (≈ 38.9 µM); in the assay with Ent.cloacae P99, 100 µg/mL (≈ 311 µM); in the assay on Kl.aerog. 1082E it was 0.78 µg/mL (≈ 2.43 µM); with Kl.aerog. 1522E, 12.5 µg/mL (≈ 38.9 µM); in the assay with Salm.typh. MZII it was 6.25 µg/mL (≈ 19.4 µM). In addition, the MIC in the assay on Staph.aureus 285 was 0.19 µg/mL (≈ 0.591 µM); with Staph.aureus 503 it was 0.19 µg/mL (≈ 0.591 µM); in the assay with Staph.aureus SG511, 0.1 µg/mL (≈ 0.311 µM); in the assay with Str.faecium D, 3.13 µg/mL (≈ 9.74 µM); in the assay with Str.pyogenes 308A, under 0.05 µg/mL; in the assay with Str.pyogenes 77A, under 0.05 µg/mL.
